Source: PubChem BioAssay (NCI)
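GI50: concentration for 50% inhibition of growth. TGI denotes the concentration required for complete inhibition of growth.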

Columns and labels:
Test in all cases: inhibition of tumour cell growth, NCI panel, 384-well format
SK-MEL-2 melanoma = system: SK-MEL-2 melanoma
OVCAR-4 ovarian = system: OVCAR-4 ovarian
SK-OV-3 ovarian = system: SK-OV-3 ovarian
TK-10 renal = system: TK-10 renal
DU-145 prostate = system: DU-145 prostate
HCC-2998 colon = system: HCC-2998 colon
SR leukemia = system: SR leukemia
HOP-92 NSCLC = system: HOP-92 NSCLC
A498 renal = system: A498 renal
HL-60(TB) leukemia = system: HL-60(TB) leukemia
KM12 colon = system: KM12 colon
UACC-257 melanoma = system: UACC-257 melanoma
SNB-75 CNS = system: SNB-75 CNS
EKVX NSCLC = system: EKVX NSCLC
MALME-3M melanoma = system: MALME-3M melanoma
U251 glioblastoma = system: U251 glioblastoma
IGROV1 ovarian = system: IGROV1 ovarian
SN12C renal = system: SN12C renal
MDA-MB-231 breast = system: MDA-MB-231 breast
RXF 393 renal = system: RXF 393 renal
NCI-H23 lung = system: NCI-H23 lung
SF-539 CNS = system: SF-539 CNS
UACC-62 melanoma = system: UACC-62 melanoma
COLO 205 colon = system: COLO 205 colon
M14 melanoma = system: M14 melanoma
RPMI-8226 leukemia = system: RPMI-8226 leukemia
BT-549 breast = system: BT-549 breast
CCRF-CEM leukemia = system: CCRF-CEM leukemia
UO-31 renal = system: UO-31 renal
OVCAR-8 ovarian = system: OVCAR-8 ovarian
NCI-H522 lung = system: NCI-H522 lung
SK-MEL-28 melanoma = system: SK-MEL-28 melanoma
NCI-H322M lung = system: NCI-H322M lung
MDA-MB-468 breast = system: MDA-MB-468 breast
OVCAR-3 ovarian = system: OVCAR-3 ovarian
SNB-19 CNS = system: SNB-19 CNS
MDA-MB-435 melanoma = system: MDA-MB-435 melanoma
SK-MEL-5 melanoma = system: SK-MEL-5 melanoma
NCI-H460 NSCLC = system: NCI-H460 NSCLC
CAKI-1 renal = system: CAKI-1 renal
MOLT-4 leukemia = system: MOLT-4 leukemia
PC-3 prostate = system: PC-3 prostate
SF-295 CNS = system: SF-295 CNS
K-562 leukemia = system: K-562 leukemia
ACHN renal = system: ACHN renal
HT29 colon = system: HT29 colon
HCT-116 colon = system: HCT-116 colon

## Cc1cc(-c2nc(C(=O)Nc3cc4oc(N5CCOCC5)nc4nc3N3CC[C@@H](O)C3)co2)ccn1
SK-MEL-2 melanoma
  GI50: 15.5 µM
  TGI: 41.6 µM
OVCAR-4 ovarian
  GI50: 36.9 µM
  TGI: > 100 µM
SK-OV-3 ovarian
  GI50: 8.43 µM
  TGI: 44.1 µM
TK-10 renal
  GI50: 18.6 µM
  TGI: > 100 µM
DU-145 prostate
  GI50: 34.1 µM
  TGI: > 100 µM
HCC-2998 colon
  GI50: 21.2 µM
  TGI: > 100 µM
SR leukemia
  GI50: 18 µM
  TGI: 37.3 µM
HOP-92 NSCLC
  GI50: 27.3 µM
  TGI: > 100 µM
A498 renal
  GI50: 12.3 µM
  TGI: > 100 µM
HL-60(TB) leukemia
  GI50: 17.7 µM
  TGI: 44.2 µM
KM12 colon
  GI50: 0.424 µM
  TGI: > 100 µM
UACC-257 melanoma
  GI50: 37.5 µM
  TGI: > 100 µM
SNB-75 CNS
  GI50: 11.2 µM
  TGI: 58.8 µM
EKVX NSCLC
  GI50: 14.2 µM
  TGI: 71.2 µM
MALME-3M melanoma
  GI50: 19.4 µM
  TGI: > 100 µM
U251 glioblastoma
  GI50: 32.7 µM
  TGI: > 100 µM
IGROV1 ovarian
  GI50: 11.4 µM
  TGI: 35.6 µM
SN12C renal
  GI50: 21.5 µM
  TGI: > 100 µM
MDA-MB-231 breast
  GI50: 36.9 µM
  TGI: > 100 µM
RXF 393 renal
  GI50: 12 µM
  TGI: 64.1 µM
NCI-H23 lung
  GI50: 13.1 µM
  TGI: 47.5 µM
SF-539 CNS
  GI50: 23.2 µM
  TGI: > 100 µM
UACC-62 melanoma
  GI50: 22.6 µM
  TGI: > 100 µM
COLO 205 colon
  GI50: 20.4 µM
  TGI: 50.2 µM
M14 melanoma
  GI50: 27.9 µM
  TGI: > 100 µM
RPMI-8226 leukemia
  GI50: 15.5 µM
  TGI: 39.4 µM
BT-549 breast
  GI50: 16.3 µM
  TGI: 82.1 µM
CCRF-CEM leukemia
  GI50: 21.4 µM
  TGI: 62.2 µM
UO-31 renal
  GI50: 33.5 µM
  TGI: > 100 µM
OVCAR-8 ovarian
  GI50: 38.1 µM
  TGI: > 100 µM
NCI-H522 lung
  GI50: 4.32 µM
  TGI: 22.7 µM
SK-MEL-28 melanoma
  GI50: 49.6 µM
  TGI: > 100 µM
NCI-H322M lung
  GI50: 30.1 µM
  TGI: > 100 µM
MDA-MB-468 breast
  GI50: 8.63 µM
  TGI: 33.1 µM
OVCAR-3 ovarian
  GI50: 13.3 µM
  TGI: 42 µM
SNB-19 CNS
  GI50: 20.4 µM
  TGI: > 100 µM
MDA-MB-435 melanoma
  GI50: 29.3 µM
  TGI: > 100 µM
SK-MEL-5 melanoma
  GI50: 11.6 µM
  TGI: 59 µM
NCI-H460 NSCLC
  GI50: 29.8 µM
  TGI: > 100 µM
CAKI-1 renal
  GI50: 8.01 µM
  TGI: 38.3 µM
MOLT-4 leukemia
  GI50: 13.2 µM
  TGI: 26.6 µM
PC-3 prostate
  GI50: 35.8 µM
  TGI: > 100 µM
SF-295 CNS
  GI50: 53.7 µM
  TGI: > 100 µM
K-562 leukemia
  GI50: 34.9 µM
  TGI: > 100 µM
ACHN renal
  GI50: 19.8 µM
  TGI: > 100 µM
HT29 colon
  GI50: > 100 µM
  TGI: > 100 µM
HCT-116 colon
  GI50: 19.4 µM
  TGI: > 100 µM

## C[C@@H](Oc1cc(-n2cnc3ccc(CN4CCN(C)CC4)cc32)sc1C(N)=O)c1ccccc1C(F)(F)F
SK-MEL-2 melanoma
  GI50: 0.272 µM
  TGI: 0.839 µM
OVCAR-4 ovarian
  GI50: 1.81 µM
  TGI: 10.2 µM
SK-OV-3 ovarian
  GI50: 0.402 µM
  TGI: 2.6 µM
TK-10 renal
  GI50: 1.22 µM
  TGI: 6.03 µM
DU-145 prostate
  GI50: 0.346 µM
  TGI: 1.21 µM
HCC-2998 colon
  GI50: 0.595 µM
  TGI: 1.89 µM
SR leukemia
  GI50: 0.146 µM
  TGI: 0.294 µM
HOP-92 NSCLC
  GI50: 1.57 µM
  TGI: 5.26 µM
A498 renal
  GI50: 0.871 µM
  TGI: 12.2 µM
HL-60(TB) leukemia
  GI50: 0.203 µM
  TGI: 0.352 µM
KM12 colon
  GI50: 0.296 µM
  TGI: 0.982 µM
UACC-257 melanoma
  GI50: 1.15 µM
  TGI: 2.37 µM
SNB-75 CNS
  GI50: 1.68 µM
  TGI: 5.3 µM
EKVX NSCLC
  GI50: 0.734 µM
  TGI: 4.19 µM
MALME-3M melanoma
  GI50: 1.15 µM
  TGI: 2.37 µM
U251 glioblastoma
  GI50: 0.689 µM
  TGI: 5.08 µM
IGROV1 ovarian
  GI50: 0.844 µM
  TGI: 11.4 µM
SN12C renal
  GI50: 2.89 µM
  TGI: 15.4 µM
MDA-MB-231 breast
  GI50: 0.679 µM
  TGI: 10.6 µM
RXF 393 renal
  GI50: 0.192 µM
  TGI: 0.565 µM
NCI-H23 lung
  GI50: 0.384 µM
  TGI: 1.68 µM
SF-539 CNS
  GI50: 0.462 µM
  TGI: 1.72 µM
UACC-62 melanoma
  GI50: 0.613 µM
  TGI: 2.1 µM
COLO 205 colon
  GI50: 0.256 µM
  TGI: 0.617 µM
M14 melanoma
  GI50: 0.573 µM
  TGI: 1.86 µM
RPMI-8226 leukemia
  GI50: 0.25 µM
  TGI: 0.734 µM
BT-549 breast
  GI50: 0.422 µM
  TGI: 1.91 µM
CCRF-CEM leukemia
  GI50: 0.18 µM
  TGI: 0.329 µM
UO-31 renal
  GI50: 2.67 µM
  TGI: 10.3 µM
OVCAR-8 ovarian
  GI50: 0.348 µM
  TGI: 1.29 µM
NCI-H522 lung
  GI50: 0.206 µM
  TGI: 0.445 µM
SK-MEL-28 melanoma
  GI50: 1.53 µM
  TGI: 2.94 µM
NCI-H322M lung
  GI50: 1.78 µM
  TGI: 9.79 µM
MDA-MB-468 breast
  GI50: 0.214 µM
  TGI: 0.446 µM
OVCAR-3 ovarian
  GI50: 0.227 µM
  TGI: 0.534 µM
SNB-19 CNS
  GI50: 1.18 µM
  TGI: 15 µM
MDA-MB-435 melanoma
  GI50: 0.244 µM
  TGI: 0.602 µM
SK-MEL-5 melanoma
  GI50: 0.359 µM
  TGI: 1.64 µM
NCI-H460 NSCLC
  GI50: 0.32 µM
  TGI: 0.906 µM
CAKI-1 renal
  GI50: 1.63 µM
  TGI: 4.5 µM
MOLT-4 leukemia
  GI50: 0.193 µM
  TGI: 0.342 µM
PC-3 prostate
  GI50: 0.804 µM
  TGI: 11.4 µM
SF-295 CNS
  GI50: 1.05 µM
  TGI: 9.34 µM
K-562 leukemia
  GI50: 0.307 µM
  TGI: 1.01 µM
ACHN renal
  GI50: 3.29 µM
  TGI: 13.8 µM
HT29 colon
  GI50: 0.36 µM
  TGI: 1.25 µM
HCT-116 colon
  GI50: 0.534 µM
  TGI: 3.04 µM
